Data from ChEMBL document CHEMBL1201862, “PubChem BioAssay data set” (2004).
The source made the active and inactive calls.

Tests used:
[1] = biological target: T1, Scavenger receptor class B member 1 (Mus musculus, UniProt Q61009); assay: inhibitors of SR-BI mediated HDL lipid uptake, dose response, ldlA[mSR-BI] cells, fluorescence, cherry pick (AID 493194); type: functional, cell-based;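 further: cellular uptake of fluorescent DiI-labeled HDL measured as cell fluorescence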
T1 sequence (Q61009 whole entry): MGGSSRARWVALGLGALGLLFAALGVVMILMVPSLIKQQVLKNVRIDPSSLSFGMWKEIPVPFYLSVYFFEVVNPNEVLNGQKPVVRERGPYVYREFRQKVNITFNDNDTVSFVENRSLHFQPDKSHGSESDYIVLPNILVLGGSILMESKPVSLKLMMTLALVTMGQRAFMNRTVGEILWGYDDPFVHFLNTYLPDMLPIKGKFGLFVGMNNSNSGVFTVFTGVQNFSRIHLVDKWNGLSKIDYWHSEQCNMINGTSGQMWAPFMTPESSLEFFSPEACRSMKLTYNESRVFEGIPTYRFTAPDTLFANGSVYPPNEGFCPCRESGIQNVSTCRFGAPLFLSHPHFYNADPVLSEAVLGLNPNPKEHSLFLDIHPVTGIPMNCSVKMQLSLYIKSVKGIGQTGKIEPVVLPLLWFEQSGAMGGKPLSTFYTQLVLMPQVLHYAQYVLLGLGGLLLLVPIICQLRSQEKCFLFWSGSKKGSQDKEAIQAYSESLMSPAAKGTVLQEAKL

[2] = Vero E6 cell cytotoxicity, dose response, cytotoxicity control for non-replicating M. tuberculosis project, secondary assay (AID 492998); type: functional, VeroE6; settings: Vero C1008
[3] = test system: INS1; assay: beta cell apoptosis inhibitors, cytokine rescue, dose response, luminescence, retest (AID 449756); type: functional, cell-based; settings: Rattus norvegicus;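 further: cell death triggered by IL-1 beta plus TNF-alpha plus IFN-gamma mixture; protective hits raise ATP signal compared with cytokine alone wells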
[4] = THP-1 cell cytotoxicity, dose response, cytotoxicity control for non-replicating M. tuberculosis project (AID 489025); type: functional
[5] = HepG2 cell cytotoxicity, dose response, cytotoxicity control for non-replicating M. tuberculosis project (AID 489018); type: functional; settings: Mycobacterium tuberculosis
[6] = cells; type: functional
[7] = biological target: Kallikrein-7 (Homo sapiens, UniProt P49862); assay: Fluorescence Intensity-based biochemical primary high throughput dose response assay to identify activators of kallikrein-7 (K7) zymogen.
Kallikrein-7, sequence (P49862 whole entry): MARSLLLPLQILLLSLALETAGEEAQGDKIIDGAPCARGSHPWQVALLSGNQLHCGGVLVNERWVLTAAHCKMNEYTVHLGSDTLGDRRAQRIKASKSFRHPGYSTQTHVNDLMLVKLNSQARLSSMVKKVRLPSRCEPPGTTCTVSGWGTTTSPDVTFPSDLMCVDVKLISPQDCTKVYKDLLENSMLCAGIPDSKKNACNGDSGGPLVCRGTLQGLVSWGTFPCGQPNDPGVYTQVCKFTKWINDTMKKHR

[8] = LGR2 antagonists, dose response, cell-based, HEK293, CRE-luciferase reporter, cherry pick, set 2 (AID 743343); type: functional;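 further: transfected cells were stimulated with diluted bursicon conditioned medium after compound addition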
[9] = biological target: Induced myeloid leukemia cell differentiation protein Mcl-1 (Homo sapiens, UniProt Q07820); type: functional
Induced myeloid leukemia cell differentiation protein Mcl-1, sequence (Q07820 whole entry): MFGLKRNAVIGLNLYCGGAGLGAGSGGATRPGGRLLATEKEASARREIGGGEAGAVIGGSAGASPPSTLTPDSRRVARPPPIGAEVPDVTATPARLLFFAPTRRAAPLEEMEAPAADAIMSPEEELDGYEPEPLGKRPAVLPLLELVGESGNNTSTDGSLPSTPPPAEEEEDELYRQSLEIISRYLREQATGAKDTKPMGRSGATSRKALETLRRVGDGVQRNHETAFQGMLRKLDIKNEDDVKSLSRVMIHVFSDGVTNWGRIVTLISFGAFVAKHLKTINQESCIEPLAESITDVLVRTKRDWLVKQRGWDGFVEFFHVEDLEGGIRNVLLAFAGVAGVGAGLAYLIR

[10] = HepG2 cell cytotoxicity, dose response, cytotoxicity control, plate reader, cherry-pick, antagonist series (AID 743416); type: functional, cell-based
[11] = biological target: Paired box protein Pax-8 (Homo sapiens, UniProt Q06710); assay: inhibitors of PAX8-driven TPO luciferase reporter, dose response, RMG-I cells, cherry-pick (AID 687027); type: functional, cell-based;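 further: luciferase reporter driven by Pax8 target thyroperoxidase promoter measured by SteadyGlo luminescence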
Paired box protein Pax-8, sequence (Q06710 whole entry): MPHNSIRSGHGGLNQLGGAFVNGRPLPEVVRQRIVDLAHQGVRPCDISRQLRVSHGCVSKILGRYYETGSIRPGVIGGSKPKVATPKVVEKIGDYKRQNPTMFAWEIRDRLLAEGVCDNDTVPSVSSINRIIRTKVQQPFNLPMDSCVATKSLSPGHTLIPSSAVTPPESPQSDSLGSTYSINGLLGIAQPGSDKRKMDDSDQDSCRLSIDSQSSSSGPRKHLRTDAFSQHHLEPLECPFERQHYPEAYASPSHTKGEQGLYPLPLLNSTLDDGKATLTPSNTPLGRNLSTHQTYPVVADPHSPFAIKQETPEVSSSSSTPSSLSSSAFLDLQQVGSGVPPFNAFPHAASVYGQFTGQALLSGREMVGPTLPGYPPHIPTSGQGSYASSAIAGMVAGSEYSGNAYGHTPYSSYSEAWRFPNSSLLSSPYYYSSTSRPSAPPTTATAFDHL

[12] = MC4R antagonists, dose response, counter-screen for LGR2 antagonist project, cell-based, plate reader, cherry pick (AID 743444); type: functional;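 further: transfected HEK 293 cells stimulated with alpha-MSH peptide; potency of inhibitors of the alpha-MSH evoked signal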
[13] = A549 cell cytotoxicity, dose response, cytotoxicity control, plate reader, cherry-pick, antagonist series (AID 743412); type: functional, cell-based
[14] = HEK293 cell cytotoxicity, dose response, cytotoxicity control, plate reader, cherry-picked samples (AID 743446); type: functional, cell-based
[15] = growth suppression of PTEN-null colon cells, dose response, cell-based, HCT116 PTEN knockout (AID 1047); type: functional;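 further: HCT116 colon tumor cells with PTEN knocked out; cells exposed to compound for 60 hours before readout; potency for loss of cell viability measured by luminescence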
[16] = test system: Streptococcus sp. 'group A'; assay: growth inhibition of control SK(-) GAS strain, dose response, counter-screen for streptokinase expression inhibitor project, luminescence, kanamycin, BacTiterGlo, confirmation (AID 1900); type: functional, organism-based
[17] = Luminescence Cell-Based Dose Retest to Confirm Inhibitors of Cancer Stem Cells. [Related pubchem assays (depositor defined):AID2717, AID2721]; type: functional, Homo sapiens; settings: Homo sapiens
[18] = growth suppression of beta-catenin-knockout colon cells, dose response, cell-based, HCT116, human colon tumor (AID 1045); type: functional;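 further: HCT116 colon tumor cells with beta catenin knocked out; cells exposed to compound for 60 hours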
[19] = test system: Streptococcus; assay: Group A Streptococcus viability loss, dose response, counter-screen for streptokinase expression inhibitor project, luminescence, BacTiterGlo (AID 1915); type: functional, organism-based;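 further: potency for reduction of bacterial viability or growth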
[20] = biological target: T2, X-box-binding protein 1 (Homo sapiens, UniProt P17861); type: functional, Cricetulus griseus;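 further: confirmatory dose-response counter-screen serving a CHOP assay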
T2 sequence (P17861 whole entry): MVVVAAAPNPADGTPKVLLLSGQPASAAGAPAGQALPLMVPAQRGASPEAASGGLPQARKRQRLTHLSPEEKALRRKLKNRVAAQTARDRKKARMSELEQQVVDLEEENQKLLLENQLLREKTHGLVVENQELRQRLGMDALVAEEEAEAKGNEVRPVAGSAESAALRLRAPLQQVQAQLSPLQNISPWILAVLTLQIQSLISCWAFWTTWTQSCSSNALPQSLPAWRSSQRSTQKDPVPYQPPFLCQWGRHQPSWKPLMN

[21] = biological target: Voltage-gated N-type calcium channel alpha-1B subunit/Amyloid beta A4 precursor protein-binding family A member 1 (Homo sapiens, UniProt Q00975+Q02410); assay: disruptors of Mint-PDZ/N-type channel peptide interaction – biochemical, HTRF, SAR follow-up (AID 2489); type: functional
Voltage-gated N-type calcium channel alpha-1B subunit/Amyloid beta A4 precursor protein-binding family A member 1, sequence (Q00975 whole entry): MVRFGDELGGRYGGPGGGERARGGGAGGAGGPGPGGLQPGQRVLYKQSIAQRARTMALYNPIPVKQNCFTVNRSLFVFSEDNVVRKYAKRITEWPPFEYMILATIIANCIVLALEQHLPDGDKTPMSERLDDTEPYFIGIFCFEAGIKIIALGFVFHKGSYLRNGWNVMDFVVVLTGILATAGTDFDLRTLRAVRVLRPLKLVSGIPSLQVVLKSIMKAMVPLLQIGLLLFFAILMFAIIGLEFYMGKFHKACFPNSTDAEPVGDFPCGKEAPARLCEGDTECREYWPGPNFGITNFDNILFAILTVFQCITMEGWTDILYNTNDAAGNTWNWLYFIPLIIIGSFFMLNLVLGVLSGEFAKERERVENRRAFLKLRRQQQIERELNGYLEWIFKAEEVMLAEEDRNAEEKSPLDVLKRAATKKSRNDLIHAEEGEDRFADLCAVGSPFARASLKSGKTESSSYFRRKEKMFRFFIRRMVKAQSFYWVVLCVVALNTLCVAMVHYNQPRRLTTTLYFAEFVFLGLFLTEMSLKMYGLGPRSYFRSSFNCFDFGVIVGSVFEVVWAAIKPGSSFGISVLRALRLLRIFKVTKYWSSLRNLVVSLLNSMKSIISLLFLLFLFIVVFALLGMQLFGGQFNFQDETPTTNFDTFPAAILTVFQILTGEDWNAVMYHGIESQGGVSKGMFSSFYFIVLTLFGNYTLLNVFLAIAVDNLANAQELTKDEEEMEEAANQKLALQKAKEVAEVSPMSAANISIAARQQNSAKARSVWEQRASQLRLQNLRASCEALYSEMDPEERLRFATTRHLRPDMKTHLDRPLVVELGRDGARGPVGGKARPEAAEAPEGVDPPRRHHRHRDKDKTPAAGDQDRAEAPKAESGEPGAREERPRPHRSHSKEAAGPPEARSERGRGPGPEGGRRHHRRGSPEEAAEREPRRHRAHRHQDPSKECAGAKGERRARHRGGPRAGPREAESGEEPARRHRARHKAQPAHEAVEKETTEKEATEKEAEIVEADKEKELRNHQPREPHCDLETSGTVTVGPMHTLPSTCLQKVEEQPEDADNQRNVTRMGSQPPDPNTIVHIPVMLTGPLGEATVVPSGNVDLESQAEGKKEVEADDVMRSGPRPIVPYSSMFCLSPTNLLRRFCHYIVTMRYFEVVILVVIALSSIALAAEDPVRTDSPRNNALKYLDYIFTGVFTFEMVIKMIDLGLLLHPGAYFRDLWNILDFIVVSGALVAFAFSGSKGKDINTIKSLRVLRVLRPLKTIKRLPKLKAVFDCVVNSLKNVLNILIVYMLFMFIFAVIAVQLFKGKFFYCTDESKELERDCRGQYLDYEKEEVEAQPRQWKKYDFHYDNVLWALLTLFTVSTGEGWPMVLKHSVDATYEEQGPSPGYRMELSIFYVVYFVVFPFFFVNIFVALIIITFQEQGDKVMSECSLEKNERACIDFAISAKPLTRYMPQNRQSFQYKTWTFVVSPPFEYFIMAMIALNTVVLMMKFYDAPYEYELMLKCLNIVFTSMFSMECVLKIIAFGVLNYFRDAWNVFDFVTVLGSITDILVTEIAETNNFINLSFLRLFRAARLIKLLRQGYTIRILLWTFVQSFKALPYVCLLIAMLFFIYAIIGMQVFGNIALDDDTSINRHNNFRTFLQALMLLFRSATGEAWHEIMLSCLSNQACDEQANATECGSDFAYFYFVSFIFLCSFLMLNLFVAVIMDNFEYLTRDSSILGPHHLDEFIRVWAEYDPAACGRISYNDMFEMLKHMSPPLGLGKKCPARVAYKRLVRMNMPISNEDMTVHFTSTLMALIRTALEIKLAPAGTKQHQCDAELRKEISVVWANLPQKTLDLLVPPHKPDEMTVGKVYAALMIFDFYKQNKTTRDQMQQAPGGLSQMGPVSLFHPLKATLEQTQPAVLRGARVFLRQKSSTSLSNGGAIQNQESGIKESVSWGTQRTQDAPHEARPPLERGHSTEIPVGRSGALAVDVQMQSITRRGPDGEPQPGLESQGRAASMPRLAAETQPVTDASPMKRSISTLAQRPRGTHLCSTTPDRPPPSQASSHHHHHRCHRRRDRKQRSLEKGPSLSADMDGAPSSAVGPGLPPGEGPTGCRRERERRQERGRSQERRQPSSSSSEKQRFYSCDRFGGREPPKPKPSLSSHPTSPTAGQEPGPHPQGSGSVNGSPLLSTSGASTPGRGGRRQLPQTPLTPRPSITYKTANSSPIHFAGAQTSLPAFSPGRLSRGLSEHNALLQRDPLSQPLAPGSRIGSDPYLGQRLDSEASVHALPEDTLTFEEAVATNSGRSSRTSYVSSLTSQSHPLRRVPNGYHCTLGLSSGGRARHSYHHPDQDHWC
Voltage-gated N-type calcium channel alpha-1B subunit/Amyloid beta A4 precursor protein-binding family A member 1, sequence (Q02410 whole entry): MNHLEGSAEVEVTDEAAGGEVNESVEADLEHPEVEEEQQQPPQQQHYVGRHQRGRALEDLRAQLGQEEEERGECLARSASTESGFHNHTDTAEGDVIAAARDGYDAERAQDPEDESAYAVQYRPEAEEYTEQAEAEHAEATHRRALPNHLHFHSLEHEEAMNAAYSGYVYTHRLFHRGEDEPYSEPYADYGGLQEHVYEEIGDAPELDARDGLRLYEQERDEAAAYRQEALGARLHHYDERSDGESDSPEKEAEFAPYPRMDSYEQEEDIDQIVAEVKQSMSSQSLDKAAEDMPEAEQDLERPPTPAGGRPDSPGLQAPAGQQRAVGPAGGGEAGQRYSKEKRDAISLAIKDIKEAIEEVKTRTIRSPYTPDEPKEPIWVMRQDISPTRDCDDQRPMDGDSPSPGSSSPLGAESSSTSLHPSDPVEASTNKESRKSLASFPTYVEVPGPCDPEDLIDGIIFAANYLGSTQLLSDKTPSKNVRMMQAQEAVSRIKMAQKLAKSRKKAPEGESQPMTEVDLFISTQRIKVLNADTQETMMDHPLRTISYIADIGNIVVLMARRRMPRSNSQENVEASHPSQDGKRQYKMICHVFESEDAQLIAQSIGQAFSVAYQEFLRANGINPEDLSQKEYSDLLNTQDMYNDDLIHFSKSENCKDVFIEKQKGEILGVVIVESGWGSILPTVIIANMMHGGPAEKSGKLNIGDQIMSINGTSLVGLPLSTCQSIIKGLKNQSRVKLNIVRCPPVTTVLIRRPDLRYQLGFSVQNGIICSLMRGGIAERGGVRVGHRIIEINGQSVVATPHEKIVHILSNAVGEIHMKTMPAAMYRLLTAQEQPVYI

CCOc1ccc(NC(=O)CN2CCN(CC(=O)Nc3cc(OC)cc(OC)c3)CC2)cc1
AC50 [1]: 0.414 µM (active)

Cc1cc(N2CCC(C)CC2)nc(NCc2ccccc2)n1
CC50 [2]: > 20 µM (active)
AC50 [3]: 5.93 µM (active)
CC50 [4]: 13.4 µM (active)
CC50 [5]: > 20 µM (active)
IC50 [6]: 45.4 µM (active)

CCC(=O)N1CCc2cc(-c3csc(NC(=O)c4ccco4)n3)ccc21
EC50 [7]: 10.5 µM (inactive)
AC50 [1]: 0.109 µM (active)

O=C(Nc1cccc(Cl)c1)Nc1nnc(-c2ccncc2)s1
AC50 [8]: 3.28 µM (active)
CC50 [2]: > 20 µM (active)
IC50 [9]: 3.12 µM (active)
AC50 [3]: 4.54 µM (active)
CC50 [4]: 6.34 µM (active)
AC50 [10]: 8.34 µM (active)
CC50 [5]: 9.96 µM (active)
AC50 [11]: 2.97 µM (active)
AC50 [12]: 6.08 µM (active)
AC50 [13]: 17.3 µM (active)
IC50 [6]: > 50 µM (active)
AC50 [14]: 15.5 µM (active)

COC(=O)c1[nH]c2cc(OC)ccc2c1NC(=O)c1ccc2c(c1)OCO2
AC50 [1]: 17.8 µM (active)

CCNC(=O)c1c(NC(=O)c2cc(-c3cc(C)ccc3O)[nH]n2)sc2c1CCCC2
EC50 [15]: 11.3 µM (active)
EC50 [16]: 2.5 µM (active)
AC50 [17]: 5.2 µM (active)
EC50 [18]: 15 µM (active)
EC50 [19]: 7.09 µM (active)
Absolute IC50 (XBP1) [20]: 10 µM

CC(/C=C/c1ccco1)=NNC(=O)c1cc(C)[nH]n1
IC50 [21]: > 56.8 µM (inactive)
